Results taken from patent publication US20060286173A1, “Drug delivery system for sub-tenon s capsule adminstration of fine grains” (priority 2003, published 2006).

Test: In vitro drug release test
Type: physicochemical
Details: 0.1 M phosphate buffer pH 7.4, 37° C.
Protocol: This mixture was placed in a glass vessel, and thereto was added 98.5 mL of 0.1 M phosphate buffer (pH 7.4). The entire mixture was shaken in a water bath at 37° C., and the in vitro drug release test was started. […] As a control, the powder of each drug in the same amount was charged into the chamber described above, and the release test was conducted in the same manner.
2) On day 1, 2, 6, 14, 29 after starting the test, the buffer was sampled in its entirety, which was analyzed using high performance liquid chromatography. Also, after the sampling, 98.5 mL of 0.1 M phosphate buffer (pH 7.4) was freshly added, and the release test was continued.

In vitro drug release rate (%) (Day 1): 57.6% | In vitro drug release rate (%) (Day 2): 73.4%
Compound: CC1(C)O[C@@H]2C[C@H]3[C@@H]4C[C@H](F)C5=CC(=O)C=C[C@]5(C)[C@@]4(F)[C@@H](O)C[C@]3(C)[C@]2(C(=O)CO)O1 [Fluocinolone acetonide powder, fluocinolone acetonide]
